Laboratory results: patent publication US9522928B2, “Mannosylated compounds useful for the prevention and the treatment of infectious diseases” (UNIVERSITE DE STRASBOURG, priority 2011, dated 2016)
“Also recorded” adds a separate entry of the source. Read-outs that look alike come from different tables or passages of the source.

Legend:
[1] = molecular target: T1, DC-SIGN CRD (Homo sapiens, UniProt Q9NNX6); test: Surface plasmon resonance (SPR) binding to immobilised DC-SIGN CRD; conditions: for Kd / KD (μM): Kd=koff/kon
T1 construct: human DC-SIGN (Lys62-Ala404, from R§D Systems); purchased R&D Systems ('R§D Systems' [sic])
T1 sequence (Q9NNX6 62-404): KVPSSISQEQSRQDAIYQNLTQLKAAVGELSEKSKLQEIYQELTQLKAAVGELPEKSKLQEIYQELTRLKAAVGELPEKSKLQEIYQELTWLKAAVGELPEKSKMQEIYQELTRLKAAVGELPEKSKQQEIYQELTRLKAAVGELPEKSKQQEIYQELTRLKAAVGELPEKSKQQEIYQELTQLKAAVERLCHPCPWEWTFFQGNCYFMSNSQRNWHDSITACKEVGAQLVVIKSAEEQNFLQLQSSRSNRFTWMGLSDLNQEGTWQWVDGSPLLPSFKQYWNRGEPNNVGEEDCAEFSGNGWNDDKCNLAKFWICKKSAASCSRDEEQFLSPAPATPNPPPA
Experimental: SPR experiments were performed using a Biacore 3000. […] Biosensor assays were performed with HEPES-buffered saline (10 mM HEPES, 150 mM sodium chloride, pH 7.4) containing 0.005% surfactant P20 and 5 mM CaCl2 as a running buffer. All binding experiments were carried out at 25° C. with a constant flow rate of 20 μl/min. The different compounds dissolved in the running buffer (0.39 to 50 μM) were injected for 3 min, followed by a dissociation phase of 3 min. The sensor chip surface was regenerated after each experiment by injecting 10 μL of EDTA 0.5 M pH 8.0. A simple channel activated by EDC/NHS and deactivated with ethanolamine was used as control. The kinetic parameters were calculated using the BlAeval 4.1 software. Analysis was performed using the simple Langmuir binding model with separate ka/kd (kon/koff). The specific binding profiles were obtained after subtracting the response signal from the control channel and from blank-buffer injection. The fitting to each model was judged by the chi square value and randomness of residue distribution compared to the theoretical model (Langmuir binding 1:1).
The binding affinity of mannoside derivatives for the carbohydrate recognition domain (CRD) of DC-SIGN was assessed by surface plasmon resonance (SPR).
A CM5 sensor chip was functionalized with the DC-SIGN CRD, and increasing concentrations of the various compounds, mannan as a positive control and octaethyleneglycol (OEG) as a negative control, were injected over the chip surface. The association (kon) and dissociation (koff) rate constants and the resulting dissociation equilibrium constant (Kd=koff/kon) for each assessed compound were determined (see Table 1 hereunder).

[2] = tested on: HIV-1 R5; test: HIV-1 R5 trans-infection of MAGI-CCR5 cells mediated by DCs; type: cell-based
Experimental: ManC1, […] (comparative) and compounds of the invention (ManC24, ManC17, TriManC24, TriDiManC24, TriManinsatC24 and ManinsatC24) were serially diluted in water. Human DCs (1×10^5 in 200 μl ) were pre-treated with different concentrations of compounds, or mannan (Sigma) or culture medium alone, in RPMI 1640 medium containing 10% FBS for 45 min at 37° C., prior infection with HIV-1 (100 ng of p24Gag) for 3 h. Excess free virus and molecules were removed by three washes. DCs were then cocultured with MAGI -CCR5 cells (1×10^5) at 37° C. plated in a 48-well plate. After two days, viral infection of MAGI-CCR5 cells was quantitated following beta-galactosidase assays and enumerating blue cells by light microscopy.
The IC50 were determined by serial dilution of each compound. The trans-infection assays were repeated a minimum of three times, and the IC50 determined using KaleidaGraph.
To investigate the ability of the compounds of the invention to inhibit HIV-1 trans infection, we chose to infect human DCs in order to best mimic in vivo conditions. Human DCs were exposed to different compounds (namely, Mannan (control), ManC1 (comparative), ManC11 (comparative), ManC17, ManC24, TriManC24, TriDiManC24, ManinsatC24 and TriManinsatC24) for 45 min at 37° C., before inoculation with HIV-1 (strains R5 and X4) for 3 hours. After extensive washings to remove unbound virions and mannosides, DCs were then co-cultured with MAGI-CCR5 cells. This procedure allows precise quantification of HIV-1 replication in reporter MAGI-CCR5 cells by detection of beta-galactosidase activity. These cells express an integrated copy of the HIV long terminal repeat (LTR) fused to the beta-galactosidase reporter gene, and express the CD4 receptor and the CCR5 and CXCR4 co-receptors, required for entry of HIV-1 R5 and X4 respectively. Upon viral entry leading to viral Tat expression and activation of the LTR, these cells permit quantification of HIV trans-infection after two days.

[3] = tested on: Dengue virus 2 (DV2); test: Dengue virus (DV2) cis-infection of human DCs; type: cell-based; conditions: for percentage of infected DCs: 48 hours
Experimental: Compounds of the invention (TriManC24, TriManinsatC24) were serially diluted in water. Human DCs (2.5×10^5 in 200 μl) in 48-well plates were pre-treated with different concentrations of compounds or culture medium alone, in RPMI 1640 medium […] for 30 min at 37° C. They were exposed to DV-2 at a multiplicity of infection of 1.0, for 2 h at 37° C. Cells were washed and cultured in complete RPMI medium (condition 1) or in complete medium containing the tested compounds (TriManC24, TriMannsatC24) (condition 2). After 48 h, supernatants were titered and cells were subjected to intracellular detection of viral antigens. DCs were fixed with 4% (v/v) paraformaldehyde and permeabilized with 0.1% (v/v) Triton X-100 for 3 min at room temperature. After washing, they were labeled with mouse anti-DV type 2 monoclonal antibody (3H5.1, Millipore) and stained with APC -conjugated rat anti-mouse IgG1. Fluorescence intensity of the cells was analyzed by flow cytometry (FACSCalibur, Becton Dickinson), using the Cell Quest Pro software.
There are four different dengue serotypes (1-4), and we have used DV type 2 (DV2) to further investigate the ability of the compounds of the invention (TriManC24 and TriManinsatC24) to inhibit the infection of human DCs. These cells were pre-treated with different concentrations of compounds or culture medium alone, for 30 min at 37° C. They were then exposed to DV2 for 2 hours at 37° C. Cells were washed to remove excess virions and compounds, and further cultured either in the absence (condition 1) or in the presence (condition 2) of the tested compounds. After 48 hours, cells were subjected to intracellular detection of viral antigens, and supernatants were titrated (not shown). […] FIG. 3A and FIG. 3B show the percentage of infected DCs when incubated with distinct concentrations of TriManinsatC24 in condition 1 and in condition 2, respectively. The histograms clearly show the protecting effects of TriManinsatC24, in particular in condition 2 wherein TriManinsatC24 at 10, 50 and 100 μM enabled the percentage of infected DCs to be reduced down to 40%, 20% and 2% respectively.

[4] = tested on: HIV-1 (R5 strain); test: HIV-1 cis-infection and replication in DCs (p24Gag ELISA); type: cell-based; conditions: 10 and 100 μM, p24Gag in supernatant
Experimental: Human monocyte-derived dendritic cells (2×10^5; 300 μL) in RPMI 1640 medium containing 10% FBS were pre-treated with either anti-DC-SIGN antibodies (clone AZND1, Beckman-Coulter; 10 μg/mL) or compounds TriManC24 and TriManC24insat (10 and 100 μM) for 30 min at 37° C., before inoculation with HIV-1 (R5 strain; 100 ng of p24Gag). After 3 h, cells were pelleted and extensively washed to remove excess virus and compounds. On day 2, 4 and 7 after infection, cells were pelleted, an aliquot of the supernatant was removed and kept at −20° C., and half of the supernatant was replaced with fresh medium. Viral replication was monitored by measuring p24Gag levels in the culture supernatant by an enzyme-linked immunosorbent assay (ELISA, Innogenetics). […] As shown in the case of Dengue virus, the compounds of the invention may also interfere with HIV cis-infection. […] Discussion

[5] = Critical micelle concentration (CMC), pyrene fluorescent probe; type: physicochemical; conditions: in water
Experimental: DiManinsatC24 was prepared according a procedure similar to that used for the preparation of TriDiManC24 except that: • pentacosanoic acid was replaced by 10,12-pentacosadiynoic acid, and • before the coupling with 10,12-pentacosadiynoic acid, the benzyl groups of compound 33 were replaced by acetyl group so as to provide compound 108 (as illustrated in FIG. 3E). ^1H NMR δ(ppm) (MeOD, 400 MHz) 4.87 (s, 3H), 4.73 (s, 3H), 3.64-3.50 (m, 14H), 3.46-3.20 (m, 76H), 2.97-2.93 (m, 6H), 2.33 (t, 6H, J=6.8 Hz), 2.09-1.96 (m, 6H), 1.08-1.05 (m, 32H), 0.66 (t, 3H, J=6.8 Hz). ^13C NMR δ (ppm) (MeOD, 100 MHz) 173.7, 168.8, 104.2, 101.2, 80.6, 80.4, 75.1, 74.7, 72.5, 72.2, 72.1, 71.9, 71.8, 71.7, 71.6, 71.4, 69.4, 69.1, 68.9, 68.7, 68.6, 68.0, 63.2, 63.1, 42.2, 37.0, 34.8, 33.7, 33.1, 30.8, 30.7, 30.6, 30.5, 30.4, 30.2, 29.5, 28.1, 27.0, 26.0, 23.7, 19.7, 14.4. […] The hydrodynamic diameters of micelles of glycolipids were measured in water using a Zetasizer Nano ZS system (Malvern Instruments). The CMCs were measured using pyrene as an extrinsic fluorescent probe and were carried out as described (Perino et al., 2011). […] Fluorescent emission of pyrene was measured at 25° C. using a Fluorolog spectrofluorometer (Jobin Yvon, Horiba). The intensities of fluorescence emission were determined at 374 nm (I374) and at 383 nm (I383), with an excitation at a 339 nm wavelength. […]

[6] = HIV-1 R5, highest concentrations, relative to medium alone

Structure (SMILES)	koff ([1]; 25° C., Langmuir 1:1) [s⁻¹]	kon ([1]; 25° C., Langmuir 1:1) [M⁻¹ s⁻¹]	Kd [1] [µM]	residual level of trans-infection [2, 6] [%]	IC50 ([2]; Human immunodeficiency virus 1, MAGI-CCR5, HIV-1 R5, read-out: IC50 of HIV-1 trans-infection) [µM]	inhibition of HIV-1 trans-infection (in words) ([2]; HIV-1 R5 where stated)	inhibition of Dengue virus infection of DCs (in words) [3]	percentage of infected DCs ([3]; condition 2, 10 μM) [%]	percentage of infected DCs ([3]; condition 2, 50 μM) [%]	percentage of infected DCs ([3]; condition 2, 100 μM) [%]	inhibition of HIV-1 cis-infection / replication in DCs (in words) [4]	inhibition of HIV-1 cis-infection / replication in DCs (in words) ([4]; listed as TriManC24insat)	KD (μM) [1]	KD (μM) ([1]; listed as TriDimanC24)	ability to form micelles (in words) [5]	residual level of trans-infection [2] [%]
CCCCCCCCCCCCC#CC#CCCCCCCCCC(=O)NCCOCCOCCOCC(=O)NCCOCCOCCOCCO[C@H]1O[C@H](CO)[C@@H](O)[C@H](O)[C@@H]1O [ManinsatC24]	0.00138	538	2.57	15	61											
CCCCCCCCCCCCC#CC#CCCCCCCCCC(=O)NC(COCCC(=O)NCCOCCOCCOCCOC1OC(CO)C(O)C(O)C1O)(COCCC(=O)NCCOCCOCCOCCOC1OC(CO)C(O)C(O)C1O)COCCC(=O)NCCOCCOCCOCCOC1OC(CO)C(O)C(O)C1O (stereo not shown) [TriManinsatC24]			0.47	2		almost fully blocked HIV trans-infection at the highest concentrations	able to inhibit the direct infection of DCs by Dengue virus	40	20	2	inhibit	decreases the amount of HIV R5 replication				
CCCCCCCCCCCCCCCCCCCCCCCCC(=O)NC(COCCC(=O)NCCOCCOCCOCCOC1OC(CO)C(O)C(O)C1OC1OC(CO)C(O)C(O)C1O)(COCCC(=O)NCCOCCOCCOCCOC1OC(CO)C(O)C(O)C1OC1OC(CO)C(O)C(O)C1O)COCCC(=O)NCCOCCOCCOCCOC1OC(CO)C(O)C(O)C1OC1OC(CO)C(O)C(O)C1O (stereo not shown) [TriDiManC24]			3.25										low micromolar range	Sub-micromolar	unable to form micelles; also recorded: failed to form micelles	40
